# According to patent publication US6737383B1, “Herbicidal oxadiazolidines” (priority 1999, dated 2004):
# What was measured:
# surinam grass = test: Test B pre/postemergence surinam grass; format: in vivo, Brachiaria decumbens
# How it was run: (§1)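 Herbicidal effect was estimated by eye on a ten-point control scale after plants spent twelve to sixteen days in a greenhouse following soil or foliar treatment. Foliar sprays targeted plants at one to four leaves; all doses were formulated in a non-phytotoxic solvent with surfactant.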
# sugar beet = test: Test B pre/postemergence sugar beet; format: in vivo, Beta vulgaris; conditions: for Plant response rating, Sugarbeets: scale of 0 to 10 where 0 is no effect and 10 is complete control
# How it was run: as §1
# soybean = test: Test B pre/postemergence soybean; format: in vivo, Glycine max; conditions: for Plant response rating, Soybean: scale of 0 to 10 where 0 is no effect and 10 is complete control
# How it was run: as §1
# velvetleaf = test: Test B pre/postemergence velvetleaf; format: in vivo, Abutilon theophrasti; conditions: for Plant response rating, Velvetleaf: scale of 0 to 10 where 0 is no effect and 10 is complete control
# How it was run: as §1
# pigweed = test: Test B pre/postemergence pigweed; format: in vivo, Amaranthus retroflexus; conditions: for Plant response rating, Redroot pigweed: scale of 0 to 10 where 0 is no effect and 10 is complete control
# How it was run: as §1
# morningglory = test: Test B pre/postemergence morningglory; format: in vivo, Ipomoea hederacea; conditions: for Plant response rating, Morningglory: scale of 0 to 10 where 0 is no effect and 10 is complete control
# How it was run: as §1
# duck salad = test: Test B flood test duck salad; format: in vivo, Heteranthera limosa
# How it was run: (§2)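 Each value is a visual injury score relative to controls, with 10 meaning complete control and 0 no effect. Evaluation took place twelve to sixteen days after the 2-leaf-stage plants were treated and kept in the greenhouse.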
# giant foxtail = test: Test B pre/postemergence giant foxtail; format: in vivo, Setaria faberii
# How it was run: as §1
# wheat = test: Test B pre/postemergence wheat; format: in vivo, Triticum aestivum; conditions: for Plant response rating, Wheat: scale of 0 to 10 where 0 is no effect and 10 is complete control
# How it was run: as §1
# cocklebur = test: Test B pre/postemergence cocklebur; format: in vivo, Xanthium strumarium
# How it was run: as §1
# bamyardgrass = test: Test B flood test barnyardgrass; format: in vivo, Echinochloa crus-galli
# How it was run: as §2
# rape = test: Test B pre/postemergence rape; format: in vivo, Brassica napus; conditions: for Plant response rating, Rape: scale of 0 to 10 where 0 is no effect and 10 is complete control
# How it was run: as §1
# crabgrass = test: Test B pre/postemergence crabgrass; format: in vivo, Digitaria sanguinalis
# How it was run: as §1
# blackgrass = test: Test B pre/postemergence blackgrass; format: in vivo, Alopecurus myosuroides
# How it was run: as §1
# smallflower flatsedge = test: Test B flood test smallflower flatsedge; format: in vivo, Cyperus difformis
# How it was run: as §2
# corn = test: Test B pre/postemergence corn; format: in vivo, Zea mays
# How it was run: as §1
# purple nutsedge = test: Test B pre/postemergence purple nutsedge; format: in vivo, Cyperus rotundus; conditions: for Plant response rating, Nutsedge: scale of 0 to 10 where 0 is no effect and 10 is complete control
# How it was run: as §1
# wild oat = test: Test B pre/postemergence wild oat; format: in vivo, Avena fatua; conditions: for Plant response rating, Wild oats: scale of 0 to 10 where 0 is no effect and 10 is complete control
# How it was run: as §1
# rice = test: Test B flood test rice; format: in vivo, Oryza sativa
# How it was run: as §2
# [1] = Postemergence, Rate 500 g/ha, scale of 0 to 10 where 0 is no effect and 10 is complete control
# [2] = Preemergence, Rate 62 g/ha, scale of 0 to 10 where 0 is no effect and 10 is complete control
# [3] = Preemergence, Rate 125 g/ha, scale of 0 to 10 where 0 is no effect and 10 is complete control
# [4] = Preemergence, Rate 250 g/ha, scale 0 to 10, 0 is no effect, 10 is complete control
# [5] = Preemergence, Rate 500 g/ha, scale 0 to 10, 0 is no effect, 10 is complete control
# [6] = Rate 62 g/ha, Postemergence, scale 0 to 10 (0 no effect, 10 complete control)
# [7] = Rate 125 g/ha, Postemergence, scale 0 to 10, 0 is no effect, 10 is complete control
# [8] = Postemergence, Rate 250 g/ha, scale 0 to 10
# [9] = Rate 62 g/ha, flood test species, Pre-emergence, visual evaluation after twelve to sixteen days
# [10] = Rate 125 g/ha, under heading Pre-emergence, flood test species, visual evaluation after twelve to sixteen days
# [11] = Rate 250 g/ha, Pre-emergence (flood test species), scale 0 to 10, 0 is no effect, 10 is complete control
# [12] = Rate 500 g/ha, Pre-emergence, flood test species, scale 0 to 10 (0 no effect, 10 complete control)
compound,measurement,setting,value
C=CC(CC)n1c(=O)on(C(=O)N(c2ccccc2)C(C)C)c1=O (stereo not drawn) [Compound 455],B. signalgrass plant response rating,"surinam grass; Postemergence, Rate 250 g/ha, scale 0 to 10, 0 no effect, 10 complete control",1
same,B. signalgrass plant response rating,surinam grass; [1],5
same,"Plant response rating, B. signalgrass",surinam grass; [2],0
same,"Plant response rating, B. signalgrass",surinam grass; [3],3
same,B. signalgrass plant response rating,surinam grass; [4],9
same,B. signalgrass plant response rating,surinam grass; [5],9
same,B. signalgrass plant response rating,surinam grass; [6],0
same,B. signalgrass plant response rating,surinam grass; [7],0
same,Sugarbeets plant response rating,sugar beet; [8],0
same,"Plant response rating, Sugarbeets","sugar beet; Preemergence, Rate 62 g/ha",0
same,"Plant response rating, Sugarbeets","sugar beet; Preemergence, Rate 125 g/ha",1
same,Sugarbeets plant response rating,sugar beet; [4],3
same,Sugarbeets plant response rating,sugar beet; [5],6
same,Sugarbeets plant response rating,sugar beet; [6],0
same,Sugarbeets plant response rating,sugar beet; [7],0
same,Soybean plant response rating,soybean; [8],4
same,"Plant response rating, Soybean","soybean; Preemergence, Rate 62 g/ha",0
same,"Plant response rating, Soybean","soybean; Preemergence, Rate 125 g/ha",0
same,Soybean plant response rating,soybean; [4],0
same,Soybean plant response rating,soybean; [5],2
same,Soybean plant response rating,soybean; [6],1
same,Soybean plant response rating,soybean; [7],2
same,Velvetleaf plant response rating,velvetleaf; [8],3
same,"Plant response rating, Velvetleaf","velvetleaf; Preemergence, Rate 62 g/ha",2
same,"Plant response rating, Velvetleaf","velvetleaf; Preemergence, Rate 125 g/ha",4
same,Velvetleaf plant response rating,velvetleaf; [4],5
same,Velvetleaf plant response rating,velvetleaf; [5],6
same,Velvetleaf plant response rating,velvetleaf; [6],0
same,Velvetleaf plant response rating,velvetleaf; [7],0
same,Redroot pigweed plant response rating,pigweed; [8],5
same,"Plant response rating, Redroot pigweed","pigweed; Preemergence, Rate 62 g/ha",7
same,"Plant response rating, Redroot pigweed","pigweed; Preemergence, Rate 125 g/ha",10
same,Redroot pigweed plant response rating,pigweed; [4],10
same,Redroot pigweed plant response rating,pigweed; [5],10
same,Redroot pigweed plant response rating,pigweed; [6],2
same,Redroot pigweed plant response rating,pigweed; [7],2
same,Morningglory plant response rating,morningglory; [8],8
same,"Plant response rating, Morningglory","morningglory; Preemergence, Rate 62 g/ha",0
same,"Plant response rating, Morningglory","morningglory; Preemergence, Rate 125 g/ha",0
same,Morningglory plant response rating,morningglory; [4],0
same,Morningglory plant response rating,morningglory; [5],4
same,Morningglory plant response rating,morningglory; [6],3
same,Morningglory plant response rating,morningglory; [7],8
same,"Plant response rating, Ducksalad (0 to 10 scale, 0 is no effect, 10 is complete control)",duck salad; [9],0
same,"Ducksalad plant response rating (0 to 10 scale, 0 is no effect, 10 is complete control)",duck salad; [10],0
same,Ducksalad plant response rating,duck salad; [11],0
same,Ducksalad plant response rating,duck salad; [12],0
same,Giant foxtail plant response rating,giant foxtail; [8],7
same,Giant foxtail plant response rating,giant foxtail; [1],9
same,"Plant response rating, Giant foxtail",giant foxtail; [2],10
same,"Plant response rating, Giant foxtail",giant foxtail; [3],10
same,Giant foxtail plant response rating,giant foxtail; [4],10
same,Giant foxtail plant response rating,giant foxtail; [5],10
same,Giant foxtail plant response rating,giant foxtail; [6],7
same,Giant foxtail plant response rating,giant foxtail; [7],7
same,Wheat plant response rating,wheat; [8],0
same,"Plant response rating, Wheat","wheat; Preemergence, Rate 62 g/ha",0
same,"Plant response rating, Wheat","wheat; Preemergence, Rate 125 g/ha",0
same,Wheat plant response rating,wheat; [4],0
same,Wheat plant response rating,wheat; [5],2
same,Wheat plant response rating,wheat; [6],0
same,Wheat plant response rating,wheat; [7],0
same,Cocklebur plant response rating,cocklebur; [8],0
same,Cocklebur plant response rating,cocklebur; [1],0
same,"Plant response rating, Cocklebur",cocklebur; [2],0
same,"Plant response rating, Cocklebur",cocklebur; [3],0
same,Cocklebur plant response rating,cocklebur; [4],0
same,Cocklebur plant response rating,cocklebur; [5],0
same,Cocklebur plant response rating,cocklebur; [6],0
same,Cocklebur plant response rating,cocklebur; [7],0
same,"Plant response rating, Barnyardgrass (0 to 10 scale, 0 is no effect, 10 is complete control)",bamyardgrass; [9],0
same,"Barnyardgrass plant response rating (0 to 10 scale, 0 is no effect, 10 is complete control)",bamyardgrass; [10],0
same,Barnyardgrass plant response rating,bamyardgrass; [11],0
same,Barnyardgrass plant response rating,bamyardgrass; [12],0
same,Rape plant response rating,rape; [8],0
same,"Plant response rating, Rape","rape; Preemergence, Rate 62 g/ha",0
same,"Plant response rating, Rape","rape; Preemergence, Rate 125 g/ha",3
same,Rape plant response rating,rape; [4],8
same,Rape plant response rating,rape; [5],9
same,Rape plant response rating,rape; [6],0
same,Rape plant response rating,rape; [7],0
same,Crabgrass plant response rating,crabgrass; [8],4
same,Crabgrass plant response rating,crabgrass; [1],9
same,"Plant response rating, Crabgrass",crabgrass; [2],5
same,"Plant response rating, Crabgrass",crabgrass; [3],5
same,Crabgrass plant response rating,crabgrass; [4],10
same,Crabgrass plant response rating,crabgrass; [5],10
same,Crabgrass plant response rating,crabgrass; [6],4
same,Blackgrass plant response rating,blackgrass; [8],9
same,Blackgrass plant response rating,blackgrass; [1],9
same,"Plant response rating, Blackgrass",blackgrass; [2],3
same,"Plant response rating, Blackgrass",blackgrass; [3],4
same,Blackgrass plant response rating,blackgrass; [4],6
same,Blackgrass plant response rating,blackgrass; [5],7
same,Blackgrass plant response rating,blackgrass; [6],6
same,Blackgrass plant response rating,blackgrass; [7],8
same,"Plant response rating, S. Flatsedge (0 to 10 scale, 0 is no effect, 10 is complete control)",smallflower flatsedge; [9],0
same,"S. Flatsedge plant response rating (0 to 10 scale, 0 is no effect, 10 is complete control)",smallflower flatsedge; [10],0
same,S. Flatsedge plant response rating,smallflower flatsedge; [11],0
same,S. Flatsedge plant response rating,smallflower flatsedge; [12],0
same,Corn plant response rating,corn; [8],0
same,Corn plant response rating,corn; [1],0
same,"Plant response rating, Corn",corn; [2],0
same,"Plant response rating, Corn",corn; [3],2
same,Corn plant response rating,corn; [4],4
same,Corn plant response rating,corn; [5],7
same,Corn plant response rating,corn; [6],0
same,Corn plant response rating,corn; [7],0
same,Nutsedge plant response rating,purple nutsedge; [8],0
same,"Plant response rating, Nutsedge","purple nutsedge; Preemergence, Rate 62 g/ha",0
same,"Plant response rating, Nutsedge","purple nutsedge; Preemergence, Rate 125 g/ha",0
same,Nutsedge plant response rating,purple nutsedge; [4],0
same,Nutsedge plant response rating,purple nutsedge; [5],3
same,Nutsedge plant response rating,purple nutsedge; [6],0
same,Nutsedge plant response rating,purple nutsedge; [7],0
same,Wild oats plant response rating,wild oat; [8],0
same,"Plant response rating, Wild oats","wild oat; Preemergence, Rate 62 g/ha",0
same,"Plant response rating, Wild oats","wild oat; Preemergence, Rate 125 g/ha",3
same,Wild oats plant response rating,wild oat; [4],9
same,Wild oats plant response rating,wild oat; [5],10
same,Wild oats plant response rating,wild oat; [6],0
same,Wild oats plant response rating,wild oat; [7],0
same,"Plant response rating, Rice (0 to 10 scale, 0 is no effect, 10 is complete control)",rice; [9],0
same,"Rice plant response rating (0 to 10 scale, 0 is no effect, 10 is complete control)",rice; [10],0
same,Rice plant response rating,rice; [11],0
same,Rice plant response rating,rice; [12],0
